# Experiment: Antioxidant effect: DPPH free radical scavenging test
# Details: treatment concentration 0.0005%; positive control
# Experimental: The following assay test method was performed by applying the decrease in absorbance at 517 nm wavelength. […] After leaving the prepared sample at room temperature for 15 minutes, absorbance was measured at a wavelength of a 517 nm using a microplate reader. […] In addition, the positive control of this experimental example was prepared by mixing 1 ml of ascorbic acid (10 ppm) solution diluted in methanol and 1 ml of DPPH.
structure (smiles),measurement,value
"O=C1O[C@H]([C@@H](O)CO)C(O)=C1O [Ascorbic acid, ascorbic acid]",DPPF radical scavenging activity,91.36 ± 0.13%
